This passage reports T/C results from PubChem BioAssay AID328 (DTP/NCI, 2004).

The test system of this test is BDF1 mice, P388 leukemia ip, median survival T/C. Nature of the test: NCI In Vivo Anticancer Drug Screen. Data for tumor model P388 Leukemia (intraperitoneal) in B6D2F1 (BDF1) mice. As to conditions: endpoint: median survival time, higher = longer survival. The gist of the method: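 In tumour-bearing mice, survival after compound treatment is set against the vehicle group and given as a quotient.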

Setting [1] is: dose: 50.0 mg/kg/injection, schedule: Q01DX009 (ip), vehicle: saline.
Where [2] appears, read: dose: 100.0 mg/kg/injection, schedule: Q01DX009 (ip), vehicle: saline.
The mark [3] stands for this setting: dose: 100.0 mg/kg/injection, schedule: Q04DX003 (ip), vehicle: saline with Tween-80.
Setting [4] is: dose: 12.5 mg/kg/injection, schedule: Q01DX009 (ip), vehicle: other.
Setting [5] is: dose: 25.0 mg/kg/injection, schedule: Q01DX009 (ip), vehicle: other.
[6] abbreviates: dose: 50.0 mg/kg/injection, schedule: Q01DX009 (ip), vehicle: other.
Setting [7] is: dose: 25.0 mg/kg/injection, schedule: Q01DX009 (ip), vehicle: saline.
[8] abbreviates: dose: 100.0 mg/kg/injection, schedule: Q01DX009 (ip), vehicle: Klucel (hydroxypropylcellulose) (HPC).
Where [9] appears, read: dose: 200.0 mg/kg/injection, schedule: Q01DX009 (ip), vehicle: Klucel (hydroxypropylcellulose) (HPC).
Setting [10] is: dose: 400.0 mg/kg/injection, schedule: Q01DX009 (ip), vehicle: Klucel (hydroxypropylcellulose) (HPC).
Setting [11] is: dose: 50.0 mg/kg/injection, schedule: Q01DX009 (ip), vehicle: saline with Tween-80.
The mark [12] stands for this setting: dose: 100.0 mg/kg/injection, schedule: Q01DX009 (ip), vehicle: other.
Where [13] appears, read: dose: 200.0 mg/kg/injection, schedule: Q01DX009 (ip), vehicle: other.

SMILES strings stand for the structures. Values joined by “and” are separate entries in the source; they are usually repeats but may differ in a detail not shown here. Equal entries are not always repeated. Toxic doses and inconclusive results are not listed.

As to `CCOc1cccc2c1C(=O)c1c(O)c3c(c(O)c1C2=O)C[C@@](O)(C(C)=O)C[C@@H]3OC1CC(N)C(O)C(C)O1` (some centres undefined), the T/C by setting is: (dose: 6.25 mg/kg/injection, schedule: Q04DX003 (ip), vehicle: water) 123 % of control; (dose: 50.0 mg/kg/injection, schedule: Q04DX003 (ip), vehicle: water) 108 % of control.

As to `CCc1cc(CC)n2cnnc2n1`, the T/C by setting is: under setting [1], 89 % of control; under setting [2], 89 % of control.

On to `Cc1nc2c(NC(=O)C(F)(F)F)nn(C)c2nc1C`, for which the T/C is 100 % of control under setting [3]; 104 % of control (dose: 200.0 mg/kg/injection, schedule: Q04DX003 (ip), vehicle: saline with Tween-80); 100 % of control (dose: 400.0 mg/kg/injection, schedule: Q04DX003 (ip), vehicle: saline with Tween-80).

On to `O=NN(CCCl)C(=O)NC1C2CC3CC(C2)CC1C3` (centres undefined), for which the T/C is 207 % of control (dose: 5.56 mg/kg/injection, schedule: Q01DX009 (ip), vehicle: other); 159 % of control (dose: 8.3 mg/kg/injection, schedule: Q04DX003 (ip), vehicle: other); 287 % of control (dose: 8.33 mg/kg/injection, schedule: Q01DX009 (ip), vehicle: other); 281 % of control and 305 % of control under setting [4]; 263 % of control (dose: 12.5 mg/kg/injection, schedule: Q04DX003 (ip), vehicle: other); 188 % of control (dose: 18.7 mg/kg/injection, schedule: Q01DX009 (ip), vehicle: other). In addition, the T/C was 222 % of control (dose: 18.7 mg/kg/injection, schedule: Q04DX003 (ip), vehicle: other); 231 % of control under setting [5]; 100 % of control under setting [6].

Regarding `COC(=O)CC(N)C(=O)OC` (centres undefined), the T/C reads like this: under setting [7], 102 % of control; under setting [1], 110 % of control; under setting [2], 103 % of control.

Consider `COc1ccc2c(c1C)CCC1(CO)C(C(C)=O)=CCC21` (centres undefined), for which the T/C runs as follows: under setting [8], 109 % of control; (dose: 100.0 mg/kg/injection, schedule: Q04DX003 (ip), vehicle: Klucel (hydroxypropylcellulose) (HPC)) 100 % of control; under setting [9], 95 % of control; (dose: 200.0 mg/kg/injection, schedule: Q04DX003 (ip), vehicle: Klucel (hydroxypropylcellulose) (HPC)) 100 % of control; under setting [10], 100 % of control; (dose: 400.0 mg/kg/injection, schedule: Q04DX003 (ip), vehicle: Klucel (hydroxypropylcellulose) (HPC)) 100 % of control.

For the molecule `NCCCOc1ccc([N+](=O)[O-])cc1Cl`, the T/C is 105 % of control under setting [7], 105 % of control under setting [1] and 104 % of control under setting [2].

In the case of `c1ccc2c3csc4ccccc4c-3nc2c1`, the T/C was 95 % of control (dose: 1.56 mg/kg/injection, schedule: Q04DX003 (ip), vehicle: Klucel (hydroxypropylcellulose) (HPC)); 95 % of control (dose: 3.12 mg/kg/injection, schedule: Q04DX003 (ip), vehicle: Klucel (hydroxypropylcellulose) (HPC)); 92 % of control and 113 % of control (dose: 5.7 mg/kg/injection, schedule: Q01DX009 (ip), vehicle: Klucel (hydroxypropylcellulose) (HPC)); 104 % of control (dose: 6.25 mg/kg/injection, schedule: Q04DX003 (ip), vehicle: Klucel (hydroxypropylcellulose) (HPC)); 88 % of control and 118 % of control (dose: 8.75 mg/kg/injection, schedule: Q01DX009 (ip), vehicle: Klucel (hydroxypropylcellulose) (HPC)); 104 % of control (dose: 12.5 mg/kg/injection, schedule: Q04DX003 (ip), vehicle: Klucel (hydroxypropylcellulose) (HPC)). Also, for the setting “dose: 13.0 mg/kg/injection, schedule: Q01DX009 (ip), vehicle: Klucel (hydroxypropylcellulose) (HPC)”, the T/C was 92 % of control and 113 % of control.

Regarding `CCN(CC)CCCC(C)Nc1c2ccc(C)cc2nc2ccc(OC)cc12` (centres undefined), the T/C under setting [11] is 123 % of control.

Take `O=C1CN(Cc2ccccc2)CC(=O)N2C(c3ccccc3)CCCN12` (centres undefined): the T/C runs as follows: (dose: 50.0 mg/kg/injection, schedule: Q01DX005 (ip), vehicle: saline with Tween-80) 97 % of control; (dose: 100.0 mg/kg/injection, schedule: Q01DX005 (ip), vehicle: saline with Tween-80) 87 % of control; (dose: 200.0 mg/kg/injection, schedule: Q01DX005 (ip), vehicle: saline with Tween-80) 92 % of control.

For the molecule `C#CC(C)OCC1CO1` (centres undefined), the T/C was 91 % of control under setting [1]; 108 % of control (dose: 50.0 mg/kg/injection, schedule: Q04DX003 (ip), vehicle: saline); 95 % of control under setting [2]; 91 % of control (dose: 100.0 mg/kg/injection, schedule: Q04DX003 (ip), vehicle: saline); 108 % of control (dose: 200.0 mg/kg/injection, schedule: Q04DX003 (ip), vehicle: saline).

Turning to `Cc1c(O)c2c(c(O)c1Cc1ccc(CN)cc1)C(=O)c1ccccc1C2=O`, the T/C is 90 % of control (dose: 12.5 mg/kg/injection, schedule: Q01DX009 (ip), vehicle: water) and 114 % of control (dose: 25.0 mg/kg/injection, schedule: Q01DX009 (ip), vehicle: water).

For the molecule `CC1=C(C(=O)OCc2ccccc2)C(c2ccc(Cl)cc2)C(C(=O)OCc2ccccc2)=C(C)N1`, the T/C reads like this: under setting [4], 100 % of control; under setting [5], 94 % of control; under setting [6], 90 % of control; under setting [12], 89 % of control; under setting [13], 90 % of control.

On to `C=C(C)[C@@H]1CC[C@]2(CO)CC[C@]3(C)[C@H](CC[C@@H]4[C@@]5(C)CC[C@H](O)C(C)(C)[C@@H]5CC[C@]43C)[C@@H]12`, for which the T/C is, setting by setting: (dose: 10.0 mg/kg/injection, schedule: Q01DX009 (ip), vehicle: saline with Tween-80) 94 % of control; (dose: 20.0 mg/kg/injection, schedule: Q01DX009 (ip), vehicle: saline with Tween-80) 99 % of control; (dose: 40.0 mg/kg/injection, schedule: Q01DX009 (ip), vehicle: saline with Tween-80) 100 % of control; (dose: 75.0 mg/kg/injection, schedule: Q01DX009 (ip), vehicle: other) 97 % of control; (dose: 80.0 mg/kg/injection, schedule: Q01DX009 (ip), vehicle: saline with Tween-80) 95 % of control; under setting [8], 101 % of control. The T/C is 106 % of control (dose: 150.0 mg/kg/injection, schedule: Q01DX009 (ip), vehicle: other); 98 % of control under setting [9]; 111 % of control under setting [10].

For the molecule `CC12CCC(=O)C=C1CCC1C2CCC2(C)C(OP(=O)(N3CC3)N3CC3)CCC12` (centres undefined), under setting [3], the T/C is 110 % of control.

As for `COc1cc(OC)c2c[n+](C)c3c4cc(OC)c(OC)cc4ccc3c2c1`, the T/C runs as follows: (dose: 6.25 mg/kg/injection, schedule: Q01DX009 (ip), vehicle: Klucel (hydroxypropylcellulose) (HPC)) 154 % of control; (dose: 12.5 mg/kg/injection, schedule: Q01DX009 (ip), vehicle: Klucel (hydroxypropylcellulose) (HPC)) 154 % of control and 169 % of control; (dose: 25.0 mg/kg/injection, schedule: Q01DX009 (ip), vehicle: Klucel (hydroxypropylcellulose) (HPC)) 170 % of control and 172 % of control; (dose: 50.0 mg/kg/injection, schedule: Q01DX009 (ip), vehicle: Klucel (hydroxypropylcellulose) (HPC)) 155 % of control and 180 % of control.

With `CC(=O)Nc1ccc(OC(C)=O)cc1C=O`, the T/C (dose: 50.0 mg/kg/injection, schedule: Q04DX002 (ip), vehicle: saline with Tween-80) is 111 % of control; the T/C (dose: 100.0 mg/kg/injection, schedule: Q04DX002 (ip), vehicle: saline with Tween-80) was 98 % of control; the T/C (dose: 200.0 mg/kg/injection, schedule: Q04DX002 (ip), vehicle: saline with Tween-80) is 89 % of control.

For `Cc1ccc(S(=O)(=O)N/N=C/C(O)CO)cc1` (centres undefined), the T/C was 98 % of control (dose: 3.13 mg/kg/injection, schedule: Q01DX009 (ip), vehicle: other); 91 % of control (dose: 6.25 mg/kg/injection, schedule: Q01DX009 (ip), vehicle: other); 98 % of control and 101 % of control under setting [4]; 98 % of control under setting [5]; 96 % of control under setting [6]; 99 % of control under setting [12]. In addition, the T/C under setting [13] is 98 % of control and the T/C (dose: 400.0 mg/kg/injection, schedule: Q01DX009 (ip), vehicle: other) was 102 % of control.

Consider `N#Cc1ccc(C[n+]2cccc3c([N+](=O)[O-])cccc32)cc1`, for which the T/C is 103 % of control (dose: 12.5 mg/kg/injection, schedule: Q01DX009 (ip), vehicle: saline with Tween-80); 108 % of control (dose: 25.0 mg/kg/injection, schedule: Q01DX009 (ip), vehicle: saline with Tween-80); 118 % of control under setting [11].
